Assay [1] deals with first-instar larvae of Pseudaletia Separata. Kind of assay: Test Example 2: treatment of the foot of rice seedlings, control rate against Pseudaletia Separata larvae. Particulars: rice seedling foot treated with 5 ml, 3 days after release. Type of assay: in vivo. On the procedure:
An aqueous solution of the compound I prepared by dissolving the compound I in water was appropriately mixed with a chemical solution of fipronil prepared by diluting Fipronil (Prince Flowable: manufactured by BASF Agro, Ltd.) with water to prepare a mixed chemical solution for test of the compound I and fipronil with a predetermined concentration. The foot of a rice seedling (2 weeks after germination) cultivated in a 90-ml plastic cup using cultivation soil was treated with 5 ml of the mixed chemical solution for test. After 3 days, 30 of first-instar larvae of Pseudaletia Separata were released per plant. After 3 days, the number of surviving larvae was counted and the control rate was calculated using the equation A.
(§1) For comparison, the test was conducted in the same manner using an aqueous solution for test having a predetermined concentration of the compound I prepared by diluting an aqueous solution of the compound I with water, and a chemical solution for test having a predetermined concentration of fipronil prepared by diluting a chemical solution of fipronil with water, respectively.
(§2) Control Rate=100×(1−[(Ts/30)/(Cs/30)]) “Equation A” where Ts and Cs denote the number of surviving larvae in the treatment group and the non-treatment group, respectively. When the control rate is less than 0 (Ts>Cs), it is represented by 0.

Assay [2] has as its system first-instar larvae of Nilaparvata lugens. Kind of assay: Test Example 3: rice seed immersion, control rate against Nilaparvata lugens larvae. It is filed as in vivo. Particulars: rice seeds immersed 24 hours at 30° C., 7 days after release.
Description: as §2
An aqueous solution of the compound I prepared by dissolving the compound I in water was appropriately mixed with a chemical solution of fipronil prepared by diluting fipronil (Prince Flowable: manufactured by BASF Agro, Ltd.) with water to prepare a mixed chemical solution for test of the compound I and fipronil with a predetermined concentration. In 40 ml of the mixed chemical solution for test, 100 of rice seeds were immersed and allowed to stand at 30° C. for 24 hours, and then each of the 15 seeds were sown in cultivation soil filled in a 90-ml plastic cup. Eleven (11) days after the sowing, 30 of first-instar larvae of Nilaparvata lugens were released on seedlings germinated from the rice seeds. After 7 days, the number of the surviving larvae was counted and the control rate was calculated using the equation A in the same manner as in Example 2.
as §1

For the compound `N#Cc1nn(-c2c(Cl)cc(C(F)(F)F)cc2Cl)c(N)c1[S+]([O-])C(F)(F)F` (stereo not drawn) [Fipronil, 5-amino-1-(2,6-dichloro-α,α,α-trifluoro-p-tolyl)-4-trifluoromethylsulfinyl pyrazole-3-carbonitrile, reference compound], the Control rate in assay [1] (Fipronil 10 ppm singly (Compound I 0 ppm)) came out at 23%; in assay [1] (Fipronil 30 ppm singly (Compound I 0 ppm)) it was 41%; in assay [1] (Fipronil 100 ppm singly (Compound I 0 ppm)), 68%; in assay [2] (Fipronil 3.1 ppm singly (Compound I 0 ppm)), 50%.

In the case of `O=C(O)CCC(=O)NCCc1ccccc1` [Compound I, 4-oxo-4-[(2-phenylethyl)amino]-butyric acid], the Control rate in assay [1] (Compound I 10 ppm singly (Fipronil 0 ppm)) turned out to be 0%; in assay [1] (Compound I 30 ppm singly (Fipronil 0 ppm)), 0%; in assay [1] (Compound I 100 ppm singly (Fipronil 0 ppm)) it was 0%; in assay [2] (Compound I 50 ppm singly (Fipronil 0 ppm)), 11%; in assay [2] (Compound I 200 ppm singly (Fipronil 0 ppm)) it was 21%.

For the origin of these results see patent publication US8367583B2, “Composition and method for controlling pests” (Sumitomo Chemical Company, Limited, priority 2009, dated 2013).
